Measurements as given in patent US20260374782A1, “NEW COMPOUNDS, PROCESSES FOR PREPARING THE SAME AND THEIR USE AS DRUGS” (B&A ONCOMEDICAL, priority 2022, published 2026).

Molecular target: T1, NKCC1 (Homo sapiens, UniProt P55011)
T1 construct: endogenous in cells; host or cells: native HEK293 cells
T1 sequence (P55011 1-1212): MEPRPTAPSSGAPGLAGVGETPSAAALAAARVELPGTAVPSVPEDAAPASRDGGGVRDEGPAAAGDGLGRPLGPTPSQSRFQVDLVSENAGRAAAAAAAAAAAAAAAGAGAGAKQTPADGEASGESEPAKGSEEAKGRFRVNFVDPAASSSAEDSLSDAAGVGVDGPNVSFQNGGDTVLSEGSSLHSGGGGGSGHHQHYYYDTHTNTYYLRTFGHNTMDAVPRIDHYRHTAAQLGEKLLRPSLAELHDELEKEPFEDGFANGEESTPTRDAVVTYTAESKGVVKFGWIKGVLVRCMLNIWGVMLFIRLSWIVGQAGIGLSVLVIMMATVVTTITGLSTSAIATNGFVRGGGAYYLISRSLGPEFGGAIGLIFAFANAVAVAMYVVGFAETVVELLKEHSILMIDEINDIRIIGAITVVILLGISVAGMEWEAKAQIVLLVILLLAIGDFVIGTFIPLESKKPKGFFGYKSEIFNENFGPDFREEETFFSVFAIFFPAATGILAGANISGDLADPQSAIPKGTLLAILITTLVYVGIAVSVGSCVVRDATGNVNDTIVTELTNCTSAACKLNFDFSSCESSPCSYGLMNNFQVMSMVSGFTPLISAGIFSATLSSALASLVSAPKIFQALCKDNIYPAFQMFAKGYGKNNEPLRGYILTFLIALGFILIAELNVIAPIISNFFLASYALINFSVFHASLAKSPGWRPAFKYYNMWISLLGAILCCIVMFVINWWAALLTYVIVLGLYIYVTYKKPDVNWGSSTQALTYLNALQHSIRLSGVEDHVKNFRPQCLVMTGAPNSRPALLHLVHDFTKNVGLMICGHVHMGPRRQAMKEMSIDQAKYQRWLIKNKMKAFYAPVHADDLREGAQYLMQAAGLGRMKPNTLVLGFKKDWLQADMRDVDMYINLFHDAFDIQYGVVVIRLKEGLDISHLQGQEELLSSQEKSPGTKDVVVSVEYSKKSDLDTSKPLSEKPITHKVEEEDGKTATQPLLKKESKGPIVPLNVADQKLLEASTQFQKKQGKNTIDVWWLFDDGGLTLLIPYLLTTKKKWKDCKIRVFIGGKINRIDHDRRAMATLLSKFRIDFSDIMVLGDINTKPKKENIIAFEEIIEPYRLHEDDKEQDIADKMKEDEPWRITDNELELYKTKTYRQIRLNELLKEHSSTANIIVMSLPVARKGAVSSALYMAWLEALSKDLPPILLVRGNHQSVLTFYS
Assay: NKCC1-mediated K+ influx (83Rb tracer uptake) in native HEK293 cells, hypertonic saline, 100 μM ouabain
Type: cell-based
Settings: HEK293, no drug = 1000, 20 μM bumetanide = 0; for inhibition at 2 µM: read-out: NKCC1 mediated flux inhibition at 2 μM (%); for inhibition at 20 µM: read-out: NKCC1 mediated flux inhibition at 20 μM (%)
Outline: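 Native cells in slightly hypertonic saline with 100 μM ouabain; 15 min preincubation then 15 min 83Rb uptake (0.25 μCi/mL), scintillation counting normalized to protein. Compounds at 2 μM and 20 μM; flux scaled 1000 (no drug) to 0 (20 μM bumetanide), triplicate dishes.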

Structure (SMILES) | inhibition at 2 µM [%] | inhibition at 20 µM [%]
CCCCNc1cc(C(=O)O)cc(S(=N)(=O)NCCCC)c1Oc1ccccc1 (stereo not shown) [Compound 94, 3-(butylamino)-5-(butylaminosulfonimidoyl)-4-phenoxy-benzoic acid] | 50 to 75 | ≥ 75
CCCCNc1cc(C(=O)O)cc(S(=N)(=O)NC23CC(C2)C3)c1Oc1ccccc1 (stereo not shown) [Compound 95, 3-[(1-bicyclo[1.1.1]pentanylamino)sulfonimidoyl]-5-(butylamino)-4-phenoxy-benzoic acid] | 30 to 50 | 30 to 50
CCCCNc1cc(C(=O)O)cc(S(=N)(=O)NC2CN3CCC2CC3)c1Oc1ccccc1 (stereo not shown) [Compound 96, 3-(butylamino)-4-phenoxy-5-[(quinuclidin-3-ylamino)sulfonimidoyl]benzoic acid] | 30 to 50 | 30 to 50
CCCCNc1cc(C(=O)O)cc(S(=N)(=O)NCC2CCN(C(C)=O)CC2)c1Oc1ccccc1 (stereo not shown) [Compound 97, 3-[[(1-acetyl-4-piperidyl)methylamino]sulfonimidoyl]-5-(butylamino)-4-phenoxy-benzoic acid] | 30 to 50 | ≥ 75
CCCCNc1cc(C(=O)OC)cc(S(=O)(=Nc2ccccc2)N2CCCCCC2)c1Oc1ccccc1 (stereo not drawn) [Compound 99, methyl 3-[S-(azepan-1-yl)-N-phenyl-sulfonimidoyl]-5-(butylamino)-4-phenoxy-benzoate] | 30 to 50 | 10 to 30
CCCCNc1cc(C(=O)O)cc(S(=O)(=NC)N(C)CC)c1Oc1ccccc1 (stereo not drawn) [Compound 100, 3-(butylamino)-5-[S-[ethyl(methyl)amino]-N-methyl-sulfonimidoyl]-4-phenoxybenzoic acid] | – | 30 to 50
CCCCNc1cc(C(=O)O)cc(S(=O)(=Nc2ccccc2)N2CCCCCC2)c1Oc1ccccc1 (stereo not drawn) [Compound 101, 3-[S-(azepan-1-yl)-N-phenyl-sulfonimidoyl]-5-(butylamino)-4-phenoxy-benzoic acid] | 10 to 30 | 10 to 30
CCCCNc1cc(C(=O)NC)cc(S(=N)(=O)NCC2CCOCC2)c1Oc1ccccc1 (stereo not shown) [Compound 103, 3-(butylamino)-N-methyl-4-phenoxy-5-[(tetrahydropyran-4-ylmethylamino)sulfonimidoyl]benzamide] | 30 to 50 | 50 to 75
CCCCNc1cc(C(=O)NC)cc(S(=N)(=O)N2Cc3ccccc3C2)c1Oc1ccccc1 (stereo not shown) [Compound 112, 3-(butylamino)-5-(isoindolin-2-ylsulfonimidoyl)-N-methyl-4-phenoxy-benzamide] | 10 to 30 | –
CCCCNc1cc(C(=O)NOC)cc(S(=N)(=O)N2Cc3ccccc3C2)c1Oc1ccccc1 (stereo not shown) [Compound 113, 3-(butylamino)-5-(isoindolin-2-ylsulfonimidoyl)-N-methoxy-4-phenoxy-benzamide] | 30 to 50 | 10 to 30
CCCCNc1cc(C(=O)NCCOC)cc(S(=N)(=O)N2Cc3ccccc3C2)c1Oc1ccccc1 (stereo not shown) [Compound 114, 3-(butylamino)-5-(isoindolin-2-ylsulfonimidoyl)-N-(2-methoxyethyl)-4-phenoxy-benzamide] | 30 to 50 | 10 to 30
CCCCNc1cc(C(=O)NCC(F)(F)F)cc(S(=N)(=O)N2Cc3ccccc3C2)c1Oc1ccccc1 (stereo not shown) [Compound 115, 3-(butylamino)-5-(isoindolin-2-ylsulfonimidoyl)-4-phenoxy-N-(2,2,2-trifluoroethyl)benzamide] | 50 to 75 | 10 to 30
CCCCNc1cc(C(=O)NC)cc(S(=N)(=O)NCc2cccc(Cl)c2)c1Oc1ccccc1 (stereo not shown) [Compound 116, 3-(butylamino)-5-[[(3-chlorophenyl)methylamino]sulfonimidoyl]-N-methyl-4-phenoxy-benzamide] | 30 to 50 | –
CCCCNc1cc(C(=O)NCCOC)cc(S(=N)(=O)NCc2cccc(Cl)c2)c1Oc1ccccc1 (stereo not shown) [Compound 118, 3-(butylamino)-5-[[(3-chlorophenyl)methylamino]sulfonimidoyl]-N-(2-methoxyethyl)-4-phenoxy-benzamide] | 10 to 30 | 10 to 30
CCCCNc1cc(C(=O)NCC(F)(F)F)cc(S(=N)(=O)NCc2cccc(Cl)c2)c1Oc1ccccc1 (stereo not shown) [Compound 119, 3-(butylamino)-5-[[(3-chlorophenyl)methylamino]sulfonimidoyl]-4-phenoxy-N-(2,2,2-trifluoroethyl)benzamide] | 10 to 30 | 10 to 30
CCCCNc1cc(C(=O)NOC)cc(S(=N)(=O)NC2CCOCC2)c1Oc1ccccc1 (stereo not shown) [Compound 121, 3-(butylamino)-N-methoxy-4-phenoxy-5-[(tetrahydropyran-4-ylamino)sulfonimidoyl]benzamide] | 30 to 50 | 30 to 50
CCCCNc1cc(C(=O)NCCOC)cc(S(=N)(=O)NC2CCOCC2)c1Oc1ccccc1 (stereo not shown) [Compound 122, 3-(butylamino)-N-(2-methoxyethyl)-4-phenoxy-5-[(tetrahydropyran-4-ylamino)sulfonimidoyl]benzamide] | 30 to 50 | 30 to 50

Results, then the compound that gave them:

inhibition at 2 µM [%] | inhibition at 20 µM [%] | Structure (SMILES)
– | 10 to 30 | CCCCNc1cc(C(=O)NC)cc(S(=N)(=O)NCc2ccccc2)c1Oc1ccccc1 (stereo not shown) [Compound 102, 3-[(benzylamino)sulfonimidoyl]-5-(butylamino)-N-methyl-4-phenoxy-benzamide]
30 to 50 | – | CCCCNc1cc(C(=O)NC)cc(S(=N)(=O)Nc2ccccc2)c1Oc1ccccc1 (stereo not shown) [Compound 104, 3-(anilinosulfonimidoyl)-5-(butylamino)-N-methyl-4-phenoxy-]
30 to 50 | 10 to 30 | CCCCNc1cc(C(=O)N(C)C)cc(S(=N)(=O)Nc2ccccc2)c1Oc1ccccc1 (stereo not shown) [Compound 105, 3-(anilinosulfonimidoyl)-5-(butylamino)-N,N-dimethyl-4-phenoxy-benzamide]
30 to 50 | – | CCCCNc1cc(C(=O)NC2CC2)cc(S(=N)(=O)Nc2ccccc2)c1Oc1ccccc1 (stereo not shown) [Compound 106, 3-(anilinosulfonimidoyl)-5-(butylamino)-N-cyclopropyl-4-phenoxy-benzamide]
– | 10 to 30 | CCCCNc1cc(C(=O)NCC2CC2)cc(S(=N)(=O)Nc2ccccc2)c1Oc1ccccc1 (stereo not shown) [Compound 107, 3-(anilinosulfonimidoyl)-5-(butylamino)-N-(cyclopropylmethyl)-4-phenoxy-benzamide]
30 to 50 | 30 to 50 | CCCCNc1cc(C(=O)NOC)cc(S(=N)(=O)Nc2ccccc2)c1Oc1ccccc1 (stereo not shown) [Compound 108, 3-(anilinosulfonimidoyl)-5-(butylamino)-N-methoxy-4-phenoxy-benzamide]
– | 10 to 30 | CCCCNc1cc(C(=O)NCCOC)cc(S(=N)(=O)Nc2ccccc2)c1Oc1ccccc1 (stereo not shown) [Compound 109, 3-(anilinosulfonimidoyl)-5-(butylamino)-N-(2-methoxyethyl)-4-phenoxy-benzamide]
– | 10 to 30 | CCCCNc1cc(C(=O)NCC(F)F)cc(S(=N)(=O)Nc2ccccc2)c1Oc1ccccc1 (stereo not shown) [Compound 110, 3-(anilinosulfonimidoyl)-5-(butylamino)-N-(2,2-difluoroethyl)-4-phenoxy-benzamide]
– | 10 to 30 | CCCCNc1cc(C(=O)NCC(F)(F)F)cc(S(=N)(=O)Nc2ccccc2)c1Oc1ccccc1 (stereo not shown) [Compound 111, 3-(anilinosulfonimidoyl)-5-(butylamino)-N-(2,2,2-trifluoroethyl)-4-phenoxy-benzamide]
30 to 50 | 10 to 30 | CCCCNc1cc(C(=O)NOC)cc(S(=N)(=O)NCc2cccc(Cl)c2)c1Oc1ccccc1 (stereo not shown) [Compound 117, 3-(butylamino)-5-[[(3-chlorophenyl)methylamino]sulfonimidoyl]-N-methoxy-4-phenoxy-benzamide]
30 to 50 | 30 to 50 | CCCCNc1cc(C(=O)NCCC(F)(F)F)cc(S(=N)(=O)Nc2ccccc2)c1Oc1ccccc1 (stereo not shown) [Compound 120, 3-(anilinosulfonimidoyl)-5-(butylamino)-4-phenoxy-N-(3,3,3-trifluoropropyl)benzamide]
